{"source": "patent US20250228806A1", "about": "“AMPK ACTIVATOR, MOTOR FUNCTION IMPROVING AGENT, MUSCULAR ENDURANCE IMPROVING AGENT, AND MUSCLE ATROPHY PREVENTING AGENT” (MARUZEN PHARMACEUTICALS CO., LTD., priority 2021, published 2025)", "key": {"[1]": {"system": "GLUT4 (Gene Symbol: Slc2a4)", "assay": "Gene expression analysis (real-time PCR) in gastrocnemius muscle of muscle atrophy model: GLUT4", "type": "in vivo, rat", "method": "(§1) A gene expression analysis test using real-time PCR was conducted on the gastrocnemius muscle extracted in Testing Example 1 above. The tissue of the gastrocnemius muscle extracted in Testing Example 1 above was fragmented, and total RNA was extracted using RNeasy® Lipid Tissue Mini Kit (available from Qiagen). The obtained total RNA was quantified using a spectrophotometer, and the total RNA was prepared to be 71.4 ng/μL. Using 1000 ng of the total RNA as a template, a reverse transcription reaction was performed using SuperScript® VILO™ CDNA Synthesis Kit (available from Thermo Fisher Scientific). The reaction solution was 20 μL, and the operation was based on the manual attached to the above kit. […] Assay mixes corresponding to the genes to be analyzed were prepared for respective genes using corresponding Taqman® Gene Expression Assays (the assay ID for each gene is described previously). […] After the reaction was completed, the Ct value was calculated using analysis software (Fluidigm Real Time PCR Analysis 4.5.2, available from Fluidigm). The obtained Ct value of each gene was standardized with the Ct value of the internal standard gene GAPDH, and the relative value was calculated when the first group (control group) was set as the standard (1.00)."}, "[2]": {"system": "Atrogin-1 (Gene Symbol: Fbxo32)", "assay": "Gene expression analysis (real-time PCR) in gastrocnemius muscle of muscle atrophy model: Atrogin-1", "type": "in vivo, rat", "method": "as §1"}, "AMPK": {"system": "AMPK", "assay": "Kinase activation analysis in muscle atrophy model: AMPK phosphorylation (ELISA)", "type": "in vivo, rat", "conditions": "gastrocnemius muscle", "method": "(§2) For the gastrocnemius muscle extracted in Testing Example 1 above, the phosphorylation state of AMPK and Akt, which are kinases contributing to increase in muscle mass, was evaluated by Luminex measurement and ELISA measurement.\n(§3) The tissue of the gastrocnemius muscle extracted in Testing Example 1 above was fragmented, and a tissue extract was collected. The total protein concentration was quantified and used for Luminex measurement and ELISA measurement described below so that the total protein amount was 10 μg per well.\nFor AMPK, PathScan® Total AMPKα Sandwich ELISA Kit (available from Cell Signaling Technology, catalog number: 7961C) was used to measure the total AMPK (t-AMPK), and PathScan® Phospho-AMPKα (Thr172) ELISA Sandwich Kit (available from Cell Signaling Technology, catalog number: 7959C) was used to measure the Thr172 phosphorylated AMPK (p-AMPK).\n(§4) As an internal standard, GAPDH was measured using Total GAPDH Magnetic Bead MAPmate™ (available from EMD Millipore, catalog number: 46-667MAG), and the measured values of the above AMPK and Akt were standardized."}, "rat muscle atrophy model": {"system": "rat muscle atrophy model", "assay": "Muscle atrophy preventing action test (hindlimb suspension)", "type": "in vivo", "method": "Using the compound (I) (Sample 1), the muscle atrophy preventing action on a rat muscle atrophy model was tested in the following manner. Eight-week-old male Crlj:WI rats (purchased from Charles River Laboratories Japan, Inc.) were reared in an maintained environment of controlled temperature: 20.0-26.0° C., controlled humidity: 40.0-70.0% RH, light and dark for 12 hours each, and ventilation frequency: 12 times/hour. During the rearing period, solid feed (CRF-1, available from Oriental Yeast Co., Ltd.) was placed in a feeder and consumed ad libitum. However, during the hindlimb suspension rearing period described below, the rats were allowed to consume the feed by scattering it on the floor. For drinking water, tap water was available ad libitum using a water bottle. After a 5-day quarantine period and a 2-day acclimatization period, the rats were grouped with 8 rats per group as listed in Table 1 by random sampling so that the average weight and variance of each group were approximately equal. The rats were put into a state in which the tails of the rats were attached to a rail on the ceiling with a rat tail suspension clip and the hindlimbs of the rats were off the floor (hindlimb suspension), and muscle atrophy was induced in this state by rearing the rats for 14 days after the grouping on the grouping day. During the period of rearing with suspended hindlimbs, the rats were able to move within the rearing cage using their forelimbs, and were able to freely consume water and feed. The compound (I) (Sample 1) was dissolved in water for injection and administered orally by force using a syringe to which a feeding needle was attached. The grouping day was taken as the first day (day 1 of administration), the administration was performed once a day for 14 days, and the day after the 14th day of administration (day 15 of administration) was the last day of the rearing period. On the last day of the hindlimb suspension rearing (day 15 of administration), blood was collected from the abdominal aorta using a heparin-Na treated vacuum blood collection tube and a winged intravenous needle under isoflurane anesthesia. After blood collection, the rats were euthanized by exsanguination from the abdominal aorta, and the right and left gastrocnemius and soleus muscles were extracted. The extracted gastrocnemius and soleus muscles were weighed separately on the right and left sides (the values in Table 2 are the total values)."}, "[3]": {"system": "PGC-1α (Gene Symbol: Ppargc1a)", "assay": "Gene expression analysis (real-time PCR) in gastrocnemius muscle of muscle atrophy model: PGC-1α", "type": "in vivo, rat", "method": "as §1"}, "[4]": {"system": "MuRF-1 (Gene Symbol: Trim63)", "assay": "Gene expression analysis (real-time PCR) in gastrocnemius muscle of muscle atrophy model: MuRF-1", "type": "in vivo, rat", "method": "as §1"}, "IL-6 (Gene Symbol: Il6)": {"system": "IL-6 (Gene Symbol: Il6)", "assay": "Gene expression analysis (real-time PCR) in gastrocnemius muscle of muscle atrophy model: IL-6", "type": "in vivo, rat", "method": "as §1"}, "Akt": {"system": "Akt", "assay": "Kinase activation analysis in muscle atrophy model: Akt phosphorylation (Luminex)", "type": "in vivo, rat", "conditions": "gastrocnemius muscle", "method": "as §2, §3\nFor Akt, MILLIPLEX® MAP Phospho/Total Akt 2-Plex Magnetic Bead Kit 96-well Plate Assay (available from EMD Millipore, catalog number: 48-618MAG) was used to measure the total Akt amount (t-Akt) and the phosphorylated Akt (p-Akt, Ser473) all at once in one reaction system.\nas §4"}, "[5]": {"conditions": "125 mg/kg orally 14 days, standardized with GAPDH"}, "[6]": {"conditions": "administration group 125 mg/kg vs control group"}}, "data": [{"smiles": "COc1cc(CCC(=O)O)ccc1O", "note": "[compound (I), 3-(4-hydroxy-3-methoxyphenyl) propionic acid]", "values": [{"measurement": "GLUT4 (Slc2a4) gene expression, relative value (control group = 1.00)", "setting": "[1]; [5]", "result": 1.13}, {"measurement": "GLUT4 gene expression compared to control group (in words)", "setting": "[1]; administration group 125 mg/kg", "result": "tendency to increase"}, {"measurement": "Atrogin-1 (Fbxo32) gene expression, relative value (control group = 1.00)", "setting": "[2]; [5]", "result": 0.68}, {"measurement": "Atrogin-1 gene expression compared to control group (in words)", "setting": "[2]; administration group 125 mg/kg", "result": "tendency to decrease"}, {"measurement": "p-AMPK/t-AMPK", "setting": "AMPK; 125 mg/kg orally 14 days, Thr172, standardized with GAPDH, control group 100.0", "result": 120.8}, {"measurement": "phosphorylated form of AMPK compared to control group (in words)", "setting": "AMPK; administration group 125 mg/kg", "result": "tendency to increase"}, {"measurement": "difference in body weight between groups (in words)", "setting": "rat muscle atrophy model; [6]", "result": "no difference was observed"}, {"measurement": "weight of the gastrocnemius muscle compared to control group (in words)", "setting": "rat muscle atrophy model; [6]", "result": "increased"}, {"measurement": "weight of the soleus muscle compared to control group (in words)", "setting": "rat muscle atrophy model; [6]", "result": "increased"}, {"measurement": "muscle mass (in words)", "setting": "rat muscle atrophy model; administration of 125 mg/kg, rat muscle atrophy model", "result": "increased"}, {"measurement": "Gastrocnemius muscle (total of right and left) weight", "setting": "rat muscle atrophy model; hindlimb-suspended rats, 125 mg/kg orally once a day for 14 days, day 15, control 2.50", "result": 2.69, "unit": "g"}, {"measurement": "Soleus muscle (total of right and left) weight", "setting": "rat muscle atrophy model; hindlimb-suspended rats, 125 mg/kg orally once a day for 14 days, day 15, control 130.3", "result": 149.1, "unit": "mg"}, {"measurement": "Body weight", "setting": "rat muscle atrophy model; hindlimb-suspended rats, 125 mg/kg orally once a day for 14 days, day 15, control 310", "result": 309, "unit": "g"}, {"measurement": "PGC-1α (Ppargc1a) gene expression, relative value (control group = 1.00)", "setting": "[3]; [5]", "result": 1.28}, {"measurement": "PGC-1α gene expression compared to control group (in words)", "setting": "[3]; administration group 125 mg/kg", "result": "tendency to increase"}, {"measurement": "MuRF-1 (Trim63) gene expression, relative value (control group = 1.00)", "setting": "[4]; [5]", "result": 0.81}, {"measurement": "MuRF-1 gene expression compared to control group (in words)", "setting": "[4]; administration group 125 mg/kg", "result": "tendency to decrease"}, {"measurement": "IL-6 (Il6) gene expression, relative value (control group = 1.00)", "setting": "IL-6 (Gene Symbol: Il6); [5]", "result": 1.10}, {"measurement": "IL-6 gene expression compared to control group (in words)", "setting": "IL-6 (Gene Symbol: Il6); administration group 125 mg/kg", "result": "tendency to increase"}, {"measurement": "p-Akt/t-Akt", "setting": "Akt; 125 mg/kg orally 14 days, Ser473, standardized with GAPDH, control group 100.0", "result": 172.9}, {"measurement": "phosphorylated form of Akt compared to control group (in words)", "setting": "Akt; administration group 125 mg/kg", "result": "tendency to increase"}]}]}
